A short description of series [1]: Pharmacokinetic assay of Balb/c mice, plasma and brain, oral. Format: in vivo. The settings on record: male, mouse, p.o. 5 mg/kg. How it is done: Test Example 3. Pharmacokinetic Assay of Balb/c Mice
Balb/c Mice were used as test animals. The pharmacokinetic behavior of the compounds of the present invention was studied in the plasma and brain of mice administered orally at the dose of 5 mg/kg.
Balb/c Mice, male, Shanghai Jiesijie Experimental Animal Co., Ltd., animal production license number (SCXK (Shanghai) 2013-0006 N0.311620400001794).
After fasting overnight, 24 male Balb/c mice were administered p.o. at a dose of 5 mg/kg and an administration volume of 10 mL/kg, respectively.
Drug formulation for oral administration: 0.5% CMC-Na (1% Tween 80).
After CO2 euthanasia of experimental animals, heart blood and brain tissue were collected at 0.25 h, 0.5 h, 1 h, 2 h, 4 h, 6 h, 8 h, and 24 h after administration. The blood was placed in EDTA-2K tubes and centrifuged at 4° C. and 6000 rpm for 6 minutes to separate plasma. The brain tissue was washed with pre-cooled PBS, dried, weighed, and stored at −80° C. The animals were feed 4 hours after administration.
1) 160 μL of acetonitrile was added to 40 μL of the plasma sample for precipitation, and then the mixture was centrifuged at 3500×g for 5-20 min.
2) 100 μL of the supernatant was taken to analyze the concentration of the test compound by LC/MS/MS.
• Liquid chromatography condition: Shimadzu LC-20AD pump • Mass spectrometry condition: AB Sciex API 4000 mass spectrometer • Chromatographic column: phenomenex Gemiu 5 μm C18 50×4.6 mm • Mobile phase: Eluent A was 0.10% formic acid in water, and Eluent B was acetonitrile • Flow rate: […] • Elution time: 0-4.0 minutes, the eluent is as follows:
The main pharmacokinetic parameters were calculated using WinNonlin8.1, and the results of the pharmacokinetic experiments in mouse are shown in the table below.

In the next series the target is T1, TAAR1 receptor (Homo sapiens, UniProt Q96RJ0).
T1 construct: expressed in transfected cells
T1 sequence (Q96RJ0 1-339): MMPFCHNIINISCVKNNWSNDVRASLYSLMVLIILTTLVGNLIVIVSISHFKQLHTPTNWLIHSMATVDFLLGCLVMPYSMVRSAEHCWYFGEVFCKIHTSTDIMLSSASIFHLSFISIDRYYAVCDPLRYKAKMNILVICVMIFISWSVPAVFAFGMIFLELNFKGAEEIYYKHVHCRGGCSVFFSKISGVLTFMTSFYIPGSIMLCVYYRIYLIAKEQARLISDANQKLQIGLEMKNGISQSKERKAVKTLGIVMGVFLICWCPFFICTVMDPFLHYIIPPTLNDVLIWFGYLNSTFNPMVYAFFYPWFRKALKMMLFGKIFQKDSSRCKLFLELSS
As to the kind of experiment: Effect on cAMP content in cells which stably express TAAR1 receptor. Format: cell-based. How it is done: Test Example1. Determination of the effect of the present compound on cAMP content in cells which stably express TAAR1 receptor
Determination of the activation effect of compounds on TAAR1 receptors.
• 1) Preparation of experimental buffer: 1*HBSS+20 mM HEPES+0.1% BSA+500 μM IBMX. • 2) Complete medium: • Ham's F12K+10% Fetal Bovine Serum+1*Penicillin-Streptomycin+200 μg/mL Hygromycin B for CHO • DMEM+10% Fetal Bovine Serum+1*Penicillin-Streptomycin+200 μg/mL Hygromycin B for HEK293 • 3) TAAR1 cell line was cultured in complete medium at 37° C. and 5% CO2; After TrypLE digestion, the cells were resuspended in the experimental buffer and seeded into a 384 cell culture plate with a density of 8000 cells/15 ul/well. • 4) The compound was diluted with experimental buffer and added 5 μL to each well to culture at 37° C. for 30 minutes. • 5) cAMP-d2 and Anti cAMP Eu3+ were freeze thaw, and diluted 20 times with lysis buffer; 10 μL cAMP-d2 was added to the experimental well, and then 10 μL Anti cAMP Eu3+ was added into the experimental well; the reaction plate was centrifuged at 200 g for 30 seconds at room temperature, and stand at 25° C. for 1 hour; data was collected by Envision.
[formula] • 5) EC50 of compounds was calculated using GraphPad nonlinear fitting formula:
[formula] • X: Log value of the compound concentration; Y: Activation %

Series [2] has as its system C57BL/6 mice, high spontaneous activity induced by phencyclidine (PCP). As to the kind of experiment: High spontaneous activity model of mice induced by phencyclidine (PCP). The format is in vivo. The settings on record: 60 minutes after modeling. The text has this: Test Example 2. Pharmacodynamic Evaluation of the Present Compounds in Mice Model of High Spontaneous Activity Induced by Phencyclidine (PCP)
The purpose of the experiment is to evaluate the efficacy of compounds in a high spontaneous activity model of C57BL/6 mice induced by phencyclidine (PCP) using the spontaneous activity method.
C57BL/6 mice, provided by Shanghai Lingchang Biotechnology Co., Ltd., male, 6-8 weeks, 20-24 g, 36 mice.
The day before the experimental test, the animals were placed in the laboratory and acclimated for 8 hours.
On the day of adaptation, the animals were randomly grouped according to their weight.
The animals were weithed and treated with solvent control (20% HP-3-CD), compounds of the present invention (oral administration) respectively. 30 minutes later, modeling (intraperitoneal administration) was performed, and the animals were given physiological saline or phencyclidine, with dosage volume of 10 mL/kg.
After the administration, the animals were placed in observation box and the spontaneous activity was detected for 30 minutes. The moving distance (meters) of the animals in the observation box was counted every 5 minutes.
After 30 minutes, the animals were taken out for modeling and then placed in the observation box to test their spontaneous activity for 60 minutes. The moving distance (meters) of the animals in the observation box was counted every 5 minutes.
Excel software was used to collect data. A Two-Way ANOVA or One-Way ANOVA was conducted used Prism (Graph pad software, Inc.) software. p<0.05 was considered significant difference.

The mark [3] stands for this setting: compound 1 mg/kg oral + PCP 5 mg/kg i.p.
Where [4] appears, read: compound 3 mg/kg oral + PCP 5 mg/kg i.p.

Marks after values point to notes of the source that are not given here.

Consider `[2H]C1([2H])CO[C@H](c2ccc(F)cc2)CN1` (single isomer, unassigned) [Example 33-1, 2-(4-Fluorophenyl)morpholin-5,5-d2], for which, in series [1] (Brain), the AUC(0-t) was 15300 ng·h/mL, the peak level (Cmax) was 8360 ng/mL, the Tmax was 15 min and the half-life was 192 min. In series [1] (Plasma), the area under the curve AUC(0-t) was 5030 ng·h/mL, the Cmax is 1970 ng/mL, the Tmax came out at 15 min and the half-life was 192 min. The same molecule came in with an EC50 on TAAR1 receptor of 7.9 nM. Besides, in series [2] (setting [3]), the “Total distance (m, Mean ± SEM) 60 minutes” value is on record as 136.4*** m. Moreover, the “Total distance (m, Mean ± SEM) 60 minutes” value in series [2] (setting [4]) is given as 126.3*** m. Further, the “Total distance (m, Mean ± SEM) 60 minutes” value in series [2] (compound 10 mg/kg oral + PCP 5 mg/kg i.p.) is reported as 83.23*** m.

Take `[2H]C1([2H])CO[C@@H](c2ccc(F)cn2)CN1` (single isomer, unassigned) [Example 17-2, 2-(5-fluoropyridin-2-yl)morpholin-5,5-d2]: in series [1] (Brain), the AUC(0-t) worked out at 7500 ng·h/mL, the Cmax is 3160 ng/mL and the time of peak concentration (Tmax) came to 30 min. Also, in series [1] (Plasma), the exposure AUC(0-t) amounted to 2630 ng·h/mL, the highest level (Cmax) was 1450 ng/mL, the Tmax amounted to 15 min and the half-life is 78 min. At TAAR1 receptor, a half-maximal response (EC50) required 8.3 nM. In series [2] (setting [3]), the “Total distance (m, Mean ± SEM) 60 minutes” value is 140.1*** m. The “Total distance (m, Mean ± SEM) 60 minutes” value in series [2] (setting [4]) is recorded as 114.1*** m.

On to `[2H]C1([2H])COC(c2cccc(C)n2)CN1` (single isomer, unassigned) [Example 10-2, 2-(6-Methylpyridin-2-yl)morpholin-5,5-d2], for which, in series [1] (Brain), the AUC(0-t) turned out to be 12500 ng·h/mL, the Cmax is 3540 ng/mL, the Tmax was found to be 30 min and the half-life is 150 min. Further, in series [1] (Plasma), the exposure AUC(0-t) was 5430 ng·h/mL, the Cmax worked out at 1320 ng/mL, the Tmax turned out to be 15 min and the half-life was 144 min. At TAAR1 receptor, this molecule came in with an EC50 of 5.4 nM. Besides, in series [2] (setting [4]), the “Total distance (m, Mean ± SEM) 60 minutes” value was 152.6*** m.

These data come from patent publication US20250051316A1, “2-(ARYL-2-YL) […] […], PREPARATION METHOD THEREFOR AND APPLICATION THEREOF” (SHANGHAI HANSOH BIOMEDICAL CO., LTD., priority 2021, published 2025).
